Tests used:
[1] = system: SKBR3, TUBO and MDA-MB231 Cells; assay: Cytotoxicity study, MTS assay; type: cell-based; details: 1 and 3 hours incubation, then 72 hours; FIG. 4
Procedure: The anti-proliferative effects of prepared liposomes containing Dox were assessed on SKBR3, TUBO and MDA-MB231 Cells using MTS assay (Promega). For this purpose, the cells were seeded at 5000 cells/well in 96 well plates. After overnight incubation, the medium was replaced with an FCS-free medium containing 1:2 serial dilutions of liposomal Dox or free Dox for scheduled incubation times (1 and 3 hours) at 37° C. The cells were washed gently in PBS and further incubated in the free drugs medium at 37° C. for 72 hours. The viability of cells was determined using a Promega MTS kit. Then, the IC50 of formulations were calculated.

TUBO tumor = assay: In vivo chemotherapy study, TUBO tumor model; design: species or system female BALB/c mice; details: 15 mg/kg; possibly acute cardiac toxicity
Procedure: All animal experiments were conducted in compliance with the Institutional Ethical Committee and Research Advisory Committee of Mashhad University of Medical Sciences guidelines. On day 0, female BALB/c mice, aged 4-6 weeks, were given subcutaneous injections of TUBO tumor cells (5×10^5 cells per mouse) in the right flank. On day 14, tumor bearing mice with palpable size received medication via a single tail vein injection of either dextrose 5% solution as negative control or doxorubicin at 15 mg/kg encapsulated in liposomes. Mice were weighed and tumor sizes were monitored within 60 days post-injection and the experiment was terminated for those mice that felt so unwell. Kaplain-Meier event free survival probability curve was obtained for each experimental group.

COc1cccc2c1C(=O)c1c(O)c3c(c(O)c1C2=O)C[C@@](O)(C(=O)CO)C[C@@H]3O[C@H]1C[C@H](N)[C@H](O)[C@H](C)O1.Cl [Dox, doxorubicin hydrochloride]
cytotoxicity (IC50) on HER2+ cell lines SKBR3 and TUBO against HER2− cell line MDA-MB-231 [1]: no distinguishing difference between cytotoxicity of HER2^+ and HER2^− cells
survival of the group under conventional Dox treatment (TUBO tumor): died in early days

From US20160045614A1, “TARGETED LIPOSOMAL COMPOSITION USING ANTI-HER-2 AFFIBODY MOLECULES AND APPLICATIONS THEREOF IN CANCER TREATMENT” (priority 2014, published 2016)
